Test results taken from US10597388B2, “Pyridazinone herbicides” (FMC CORPORATION, priority 2014, dated 2020).

Experiments:
Experiment in all cases: Test D controlled growth environment herbicide test, pre- and postemergence
Assay type in all cases: in vivo
[1] = system: wheat, winter (winter wheat, Triticum aestivum)
Outline: (§1)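 Pre-emergence: seeds sown in silt loam soil were sprayed with compound in a non-phytotoxic solvent mix containing surfactant. Post-emergence: plants at 2 to 18 cm (1- to 4-leaf stage) in peat moss/vermiculite medium got the same formulation. Visual 0–100 rating versus controls after 14 to 21 d.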

[2] = system: deadnettle (henbit deadnettle, Lamium amplexicaule)
Outline: as §1

[3] = system: lambsquarters (Chenopodium album)
Outline: as §1

[4] = system: galium (catchweed bedstraw, Galium aparine)
Outline: as §1

[5] = system: pigweed (Amaranthus retroflexus)
Outline: as §1

[6] = system: barley, winter (winter barley, Hordeum vulgare)
Outline: as §1

[7] = system: chickweed (common chickweed, Stellaria media)
Outline: as §1

[8] = system: blackgrass (Alopecurus myosuroides)
Outline: as §1

[9] = system: foxtail, green (green foxtail, Setaria viridis)
Outline: as §1

[10] = system: windgrass (Apera spica-venti)
Outline: as §1

[11] = system: ryegrass, Italian (Italian ryegrass, Lolium multiflorum)
Outline: as §1

[12] = system: speedwell (bird's-eye speedwell, Veronica persica)
Outline: as §1

kochia (Kochia scoparia) = system: kochia (Kochia scoparia)
Outline: as §1

[13] = Postemergence, 31 g ai/ha, scale 0 to 100 (0 no effect, 100 complete control)
[14] = Postemergence, 125 g ai/ha, visual rating on scale 0 (no effect) to 100 (complete control), 14 to 21 d
[15] = Postemergence, 250 g ai/ha, scale 0 to 100 (0 no effect, 100 complete control)
[16] = Preemergence, 125 g ai/ha, scale 0 to 100 (0 no effect, 100 complete control)
[17] = Preemergence, 250 g ai/ha, scale 0 to 100 (0 no effect, 100 complete control)
[18] = postemergence, 62 g ai/ha, scale 0 to 100, 0 no effect, 100 complete control
[19] = Preemergence, 62 g ai/ha, scale 0 to 100 (0 no effect, 100 complete control)

## CC(=O)Oc1c(Br)nn(C)c(=O)c1-c1c(C)ccc2ccccc12 [Compound 129]
[1]; [13]
  Wheat, Winter plant response rating: 30
[1]; [14]
  Plant response rating, Wheat, Winter: 40
[1]; [15]
  Plant response rating, Wheat, Winter: 55
[1]; Preemergence, 31 g ai/ha
  Plant response rating (scale of 0 to 100), Wheat, Winter: 10
[1]; Preemergence, 62 g ai/ha
  Plant response rating (scale of 0 to 100), Wheat, Winter: 35
[1]; [16]
  Plant response rating, Wheat, Winter: 45
[1]; [17]
  Plant response rating, Wheat, Winter: 60
[1]; [18]
  Plant response rating, Wheat, Winter: 35
[2]; [13]
  Deadnettle plant response rating: 35
[2]; [14]
  Plant response rating, Deadnettle: 70
[2]; [15]
  Plant response rating, Deadnettle: 95
[2]; Preemergence, 31 g ai/ha
  Plant response rating (scale of 0 to 100), Deadnettle: 60
[2]; Preemergence, 62 g ai/ha
  Plant response rating (scale of 0 to 100), Deadnettle: 75
[2]; [16]
  Plant response rating, Deadnettle: 75
[2]; [17]
  Plant response rating, Deadnettle: 95
[2]; [18]
  Plant response rating, Deadnettle: 40
[3]; [13]
  Lambsquarters plant response rating: 75
[3]; [14]
  Plant response rating, Lambsquarters: 95
[3]; [15]
  Plant response rating, Lambsquarters: 100
[3]; Preemergence, 31 g ai/ha
  Plant response rating (scale of 0 to 100), Lambsquarters: 100
[3]; Preemergence, 62 g ai/ha
  Plant response rating (scale of 0 to 100), Lambsquarters: 75
[3]; [16]
  Plant response rating, Lambsquarters: 100
[3]; [17]
  Plant response rating, Lambsquarters: 100
[3]; [18]
  Plant response rating, Lambsquarters: 90
[4]; [13]
  Galium plant response rating: 90
[4]; [14]
  Plant response rating, Galium: 100
[4]; [15]
  Plant response rating, Galium: 100
[4]; Preemergence, 31 g ai/ha
  Plant response rating (scale of 0 to 100), Galium: 75
[4]; Preemergence, 62 g ai/ha
  Plant response rating (scale of 0 to 100), Galium: 90
[4]; [16]
  Plant response rating, Galium: 90
[4]; [17]
  Plant response rating, Galium: 95
[4]; [18]
  Plant response rating, Galium: 100
[5]; [13]
  Pigweed plant response rating: 98
[5]; [14]
  Plant response rating, Pigweed: 100
[5]; [15]
  Plant response rating, Pigweed: 100
[5]; Preemergence, 31 g ai/ha
  Plant response rating (scale of 0 to 100), Pigweed: 100
[5]; Preemergence, 62 g ai/ha
  Plant response rating (scale of 0 to 100), Pigweed: 100
[5]; [16]
  Plant response rating, Pigweed: 100
[5]; [17]
  Plant response rating, Pigweed: 98
[5]; [18]
  Plant response rating, Pigweed: 98
[6]; [13]
  Barley, Winter plant response rating: 10
[6]; [14]
  Plant response rating, Barley, Winter: 30
[6]; [15]
  Plant response rating, Barley, Winter: 35
[6]; Preemergence, 31 g ai/ha
  Plant response rating (scale of 0 to 100), Barley, Winter: 0
[6]; [19]
  Plant response rating, Barley, Winter: 0
[6]; [16]
  Plant response rating, Barley, Winter: 0
[6]; [17]
  Plant response rating, Barley, Winter: 10
[6]; [18]
  Plant response rating, Barley, Winter: 20
[7]; [13]
  Chickweed plant response rating: 100
[7]; [14]
  Plant response rating, Chickweed: 100
[7]; [15]
  Plant response rating, Chickweed: 100
[7]; Preemergence, 31 g ai/ha
  Plant response rating (scale of 0 to 100), Chickweed: 98
[7]; Preemergence, 62 g ai/ha
  Plant response rating (scale of 0 to 100), Chickweed: 100
[7]; [16]
  Plant response rating, Chickweed: 98
[7]; [17]
  Plant response rating, Chickweed: 100
[7]; [18]
  Plant response rating, Chickweed: 100
[8]; [13]
  Blackgrass plant response rating: 35
[8]; [14]
  Plant response rating, Blackgrass: 60
[8]; [15]
  Plant response rating, Blackgrass: 75
[8]; Preemergence, 31 g ai/ha
  Plant response rating (scale of 0 to 100), Blackgrass: 10
[8]; [19]
  Plant response rating, Blackgrass: 15
[8]; [16]
  Plant response rating, Blackgrass: 55
[8]; [17]
  Plant response rating, Blackgrass: 75
[8]; [18]
  Plant response rating, Blackgrass: 45
[9]; [13]
  Foxtail, Green plant response rating: 80
[9]; [14]
  Plant response rating, Foxtail, Green: 85
[9]; [15]
  Plant response rating, Foxtail, Green: 95
[9]; Preemergence, 31 g ai/ha
  Plant response rating (scale of 0 to 100), Foxtail, Green: 35
[9]; Preemergence, 62 g ai/ha
  Plant response rating (scale of 0 to 100), Foxtail, Green: 70
[9]; [16]
  Plant response rating, Foxtail, Green: 80
[9]; [17]
  Plant response rating, Foxtail, Green: 95
[9]; [18]
  Plant response rating, Foxtail, Green: 80
[10]; [13]
  Windgrass plant response rating: 20
[10]; [14]
  Plant response rating, Windgrass: 55
[10]; [15]
  Plant response rating, Windgrass: 90
[10]; Preemergence, 31 g ai/ha
  Plant response rating (scale of 0 to 100), Windgrass: 35
[10]; Preemergence, 62 g ai/ha
  Plant response rating (scale of 0 to 100), Windgrass: 45
[10]; [16]
  Plant response rating, Windgrass: 75
[10]; [17]
  Plant response rating, Windgrass: 80
[10]; [18]
  Plant response rating, Windgrass: 35
[11]; [13]
  Ryegrass, Italian plant response rating: 80
[11]; [14]
  Plant response rating, Ryegrass, Italian: 90
[11]; [15]
  Plant response rating, Ryegrass, Italian: 90
[11]; Preemergence, 31 g ai/ha
  Plant response rating (scale of 0 to 100), Ryegrass, Italian: 70
[11]; Preemergence, 62 g ai/ha
  Plant response rating (scale of 0 to 100), Ryegrass, Italian: 80
[11]; [16]
  Plant response rating, Ryegrass, Italian: 98
[11]; [17]
  Plant response rating, Ryegrass, Italian: 100
[11]; [18]
  Plant response rating, Ryegrass, Italian: 85
[12]; [13]
  Speedwell plant response rating: 35
[12]; [14]
  Plant response rating, Speedwell: 65
[12]; [15]
  Plant response rating, Speedwell: 75
[12]; Preemergence, 31 g ai/ha
  Plant response rating (scale of 0 to 100), Speedwell: 90
[12]; Preemergence, 62 g ai/ha
  Plant response rating (scale of 0 to 100), Speedwell: 100
[12]; [16]
  Plant response rating, Speedwell: 100
[12]; [17]
  Plant response rating, Speedwell: 100
[12]; [18]
  Plant response rating, Speedwell: 60
Kochia (Kochia scoparia); [13]
  Kochia plant response rating: 60
Kochia (Kochia scoparia); [14]
  Plant response rating, Kochia: 80
Kochia (Kochia scoparia); [15]
  Plant response rating, Kochia: 85
Kochia (Kochia scoparia); Preemergence, 31 g ai/ha
  Plant response rating (scale of 0 to 100), Kochia: 5
Kochia (Kochia scoparia); Preemergence, 62 g ai/ha
  Plant response rating (scale of 0 to 100), Kochia: 55
Kochia (Kochia scoparia); [16]
  Plant response rating, Kochia: 85
Kochia (Kochia scoparia); [17]
  Plant response rating, Kochia: 100
Kochia (Kochia scoparia); [18]
  Plant response rating, Kochia: 70
